Source: US20140005103A1, “SULFONAMIDE DERIVATIVES AND METHODS OF USE THEREOF FOR IMPROVING THE PHARMACOKINETICS OF A DRUG” (Merck, Sharp & Dohme Corp., priority 2012, published 2014)

How the values were obtained:
CYP3A4 = CYP3A4 (Homo sapiens, UniProt P08684); assay: IC50 vs CYP3A by inhibition of lopinavir metabolism in human liver microsomes; format: biochemical; conditions: pH 7.4, human liver microsomes, 1.5 μM lopinavir, 8 min at 37° C., test concentrations 0.098-100 nM, read-out: 3A4(LPV)
CYP3A4, sequence (P08684 2-503): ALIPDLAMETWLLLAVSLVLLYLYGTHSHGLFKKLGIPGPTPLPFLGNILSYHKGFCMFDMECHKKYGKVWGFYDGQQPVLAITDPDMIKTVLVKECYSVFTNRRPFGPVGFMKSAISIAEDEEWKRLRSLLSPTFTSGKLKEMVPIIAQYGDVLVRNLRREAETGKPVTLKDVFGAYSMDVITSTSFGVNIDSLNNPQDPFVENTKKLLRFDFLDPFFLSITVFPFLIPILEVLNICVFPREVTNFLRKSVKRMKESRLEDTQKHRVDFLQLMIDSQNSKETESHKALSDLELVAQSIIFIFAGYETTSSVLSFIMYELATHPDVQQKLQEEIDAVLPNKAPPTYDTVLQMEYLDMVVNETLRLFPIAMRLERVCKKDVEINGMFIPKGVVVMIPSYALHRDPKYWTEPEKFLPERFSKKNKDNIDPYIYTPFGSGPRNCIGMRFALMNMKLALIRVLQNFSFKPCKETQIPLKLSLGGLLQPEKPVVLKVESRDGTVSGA
Protocol: Determination of IC50 vs CYP3A by Measurement of Inhibition of Lopinavir Metabolism
This assay was performed in a standard 96-well plate design. IC50 values were calculated from the percent inhibition observed for each test compound at 6 concentrations (for example, 0.098, 0.391, 1.56, 6.25, 25 and 100 nM). The incubation substrate mix contains 1.5 μM lopinavir, 0.01 mg/mL protein human liver microsomes (BD Gentest), 1 mM NAPDH, 3.3 mM MgCl2 and 100 mM potassium phosphate buffer (pH 7.4). The production of the sum of three hydroxylated metabolites (M2: 6-hydroxy lopinavir, M3: 4-hydroxy lopinavir, M4: 4-hydroxy lopinavir (epimer of M3), Kumar et al., 1999) was determined after incubation for 8 min at 37° C. Quantitation of the metabolite peak area ratio against an internal standard (tolbutamide) was determined by LC/MS/MS analysis following acetonitrile treatment of the incubations.
(§1) Samples were analyzed in the MRM mode with a SCIEX API-4000 mass spectrometer (Applied Biosystems, Foster City, Calif.), with a Shimadzu LC-20 AD pump (Shimadzu corporation, Kyoto, JP) and a CTC PAL autosampler (Agilent Technologies, Switzerland). A Phenomenex, Luna, 5 μm, 100 A, 2.00×30 mm HPLC column was used for the separation. The mobile phases were: (A) 0.1% formic acid in water and (B) 0.1% formic acid in acetonitrile. The binary gradient was as follows.
(§2) The peak area ratio of the analyte to the internal standard was used to quantify the metabolite. The values of peak area ratios in the presence of test compound were compared to those of maximum or minimum controls and were expressed as % inhibition by interpolating between the maximum and minimum peak area ratios. Incubations with no inhibitor were defined as the maxima and with 5 μM ketoconazole were defined as the minima
(§3) The following equation was used to calculate the % inhibition:
(§4) [1−[(X−Low control)/(High control−Low control)]]*100
(§5) For the IC50 calculation, SigmaPlot was used to plot the mean % inhibition versus the test compound concentrations and for non-linear regression analysis of the data. Depending on the range of data points defining the inhibition curve, the data may have been fit to the 4-parameter logistic equation.

CYP1A2 = target: T1, CYP1A2 (Homo sapiens, UniProt P05177); assay: Cocktail CYP assay, phenacetin O-deethylation; format: in vitro ADME; conditions: human liver microsomes, 10 μM phenacetin; test concentrations up to 10 μM
T1 construct: 0.1 mg/mL protein human liver microsomes (BD Gentest); tissue BD Gentest; host or cells: human liver microsomes
T1 sequence (P05177 1-516): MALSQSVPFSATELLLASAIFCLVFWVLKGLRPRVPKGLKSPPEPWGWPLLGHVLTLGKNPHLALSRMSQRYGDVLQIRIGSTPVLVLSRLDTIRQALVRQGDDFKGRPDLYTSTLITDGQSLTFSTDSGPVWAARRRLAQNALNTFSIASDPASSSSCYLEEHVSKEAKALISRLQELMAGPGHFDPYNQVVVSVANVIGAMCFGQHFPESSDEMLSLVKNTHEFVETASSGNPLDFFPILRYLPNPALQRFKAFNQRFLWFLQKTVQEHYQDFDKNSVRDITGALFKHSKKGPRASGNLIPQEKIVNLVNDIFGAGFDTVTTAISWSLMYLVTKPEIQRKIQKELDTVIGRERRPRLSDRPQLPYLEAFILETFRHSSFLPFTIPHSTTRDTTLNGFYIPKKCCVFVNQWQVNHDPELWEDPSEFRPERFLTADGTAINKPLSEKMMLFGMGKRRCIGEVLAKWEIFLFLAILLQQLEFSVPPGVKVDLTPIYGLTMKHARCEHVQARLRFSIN
Protocol: (§6) Determination of IC50 in a Cocktail Assay for CYPs 1A2, 2C9, 2C19, 2D6 and 3A4
(§7) This assay was performed in a standard 96-well plate design. IC50 values were calculated from the percent inhibition observed for each test compound at 6 concentrations (for example, 0.0032, 0.016, 0.08, 0.4, 2 and 10 μM). The incubation substrate mix contains 10 μM phenacetin (1A2), 5 μM diclofenac (2C9), 30 μM mephenyloin (2C19), 5 μM dextromethorphan (2D6) and 2 μM midazolam (3A4), 0.1 mg/mL protein human liver microsomes (BD Gentest), 1 mM NAPDH, 3.3 mM MgCl2 and 100 mM potassium phosphate buffer (pH 7.4). The production of the metabolite of each probe substrate was determined after incubation for 10 min at 37° C. Quantitation of the metabolite peak area ratio against an internal standard (tolbutamide) was determined by LC/MS/MS analysis following acetonitrile treatment of the incubations.
as §1, with “[…],” for “μm,”
as §2, with “maxima.” for “maxima and with 5 μM ketoconazole were defined as the minima”
as §3, §4, §5

CYP2C9 = target: T2, CYP2C9 (Homo sapiens, UniProt P11712); assay: Cocktail CYP assay, diclofenac 4'-hydroxylation; format: in vitro ADME; conditions: human liver microsomes, 5 μM diclofenac; test concentrations up to 10 μM
T2 construct: 0.1 mg/mL protein human liver microsomes (BD Gentest); tissue BD Gentest; host or cells: human liver microsomes
T2 sequence (P11712 whole entry): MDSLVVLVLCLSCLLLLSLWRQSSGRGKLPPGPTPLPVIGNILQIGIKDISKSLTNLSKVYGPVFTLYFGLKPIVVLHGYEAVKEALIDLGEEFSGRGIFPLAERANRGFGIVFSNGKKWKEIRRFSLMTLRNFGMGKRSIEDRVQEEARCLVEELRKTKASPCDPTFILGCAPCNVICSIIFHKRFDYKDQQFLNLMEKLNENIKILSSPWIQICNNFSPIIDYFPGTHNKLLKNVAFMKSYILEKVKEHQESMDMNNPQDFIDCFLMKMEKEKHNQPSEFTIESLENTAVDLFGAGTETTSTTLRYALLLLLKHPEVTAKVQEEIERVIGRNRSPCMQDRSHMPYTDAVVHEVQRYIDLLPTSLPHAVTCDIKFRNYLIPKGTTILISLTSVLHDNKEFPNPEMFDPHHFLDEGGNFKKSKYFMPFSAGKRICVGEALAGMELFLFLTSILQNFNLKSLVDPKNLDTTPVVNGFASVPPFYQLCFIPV
Protocol: as §6, §7
as §1, with “[…],” for “μm,”
as §2, with “maxima.” for “maxima and with 5 μM ketoconazole were defined as the minima”
as §3, §4, §5

CYP2C19 = target: T3, CYP2C19 (Homo sapiens, UniProt P33261); assay: Cocktail CYP assay, mephenytoin 4'-hydroxylation; format: in vitro ADME; conditions: human liver microsomes, 30 μM mephenytoin; test concentrations up to 10 μM
T3 construct: 0.1 mg/mL protein human liver microsomes (BD Gentest); tissue BD Gentest; host or cells: human liver microsomes
T3 sequence (P33261 whole entry): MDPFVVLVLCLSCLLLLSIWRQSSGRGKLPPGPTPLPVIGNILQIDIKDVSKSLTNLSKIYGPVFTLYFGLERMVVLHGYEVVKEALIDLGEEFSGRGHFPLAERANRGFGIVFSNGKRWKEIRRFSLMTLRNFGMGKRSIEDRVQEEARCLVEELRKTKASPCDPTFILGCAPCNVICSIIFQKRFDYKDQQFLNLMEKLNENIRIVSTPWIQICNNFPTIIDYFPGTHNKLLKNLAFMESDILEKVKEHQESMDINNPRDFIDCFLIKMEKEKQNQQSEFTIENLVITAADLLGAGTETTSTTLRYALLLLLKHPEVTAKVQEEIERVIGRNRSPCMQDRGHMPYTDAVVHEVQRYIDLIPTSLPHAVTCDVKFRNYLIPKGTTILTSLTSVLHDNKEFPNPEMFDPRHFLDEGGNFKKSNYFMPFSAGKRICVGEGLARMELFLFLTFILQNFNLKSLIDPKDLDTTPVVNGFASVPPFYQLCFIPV
Protocol: as §6, §7
as §1, with “[…],” for “μm,”
as §2, with “maxima.” for “maxima and with 5 μM ketoconazole were defined as the minima”
as §3, §4, §5

CYP2D6 = target: T4, CYP2D6 (Homo sapiens, UniProt P10635); assay: Cocktail CYP assay, dextromethorphan O-demethylation; format: in vitro ADME; conditions: human liver microsomes, 5 μM dextromethorphan; test concentrations up to 10 μM
T4 construct: 0.1 mg/mL protein human liver microsomes (BD Gentest); tissue BD Gentest; host or cells: human liver microsomes
T4 sequence (P10635 whole entry): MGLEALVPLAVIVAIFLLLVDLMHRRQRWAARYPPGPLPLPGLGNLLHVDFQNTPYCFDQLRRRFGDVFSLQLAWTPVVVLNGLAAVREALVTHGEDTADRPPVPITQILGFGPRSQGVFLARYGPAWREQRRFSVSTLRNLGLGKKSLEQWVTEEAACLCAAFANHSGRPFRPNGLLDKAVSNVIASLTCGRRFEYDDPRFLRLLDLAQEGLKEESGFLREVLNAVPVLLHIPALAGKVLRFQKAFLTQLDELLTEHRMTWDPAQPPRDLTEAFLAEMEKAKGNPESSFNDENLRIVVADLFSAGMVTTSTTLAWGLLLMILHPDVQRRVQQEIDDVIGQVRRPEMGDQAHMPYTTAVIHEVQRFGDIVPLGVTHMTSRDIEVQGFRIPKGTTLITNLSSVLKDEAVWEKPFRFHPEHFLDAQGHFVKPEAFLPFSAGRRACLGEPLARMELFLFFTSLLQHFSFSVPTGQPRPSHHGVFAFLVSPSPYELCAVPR
Protocol: as §6, §7
as §1, with “[…],” for “μm,”
as §2, with “maxima.” for “maxima and with 5 μM ketoconazole were defined as the minima”
as §3, §4, §5

human CYP11B1 = target: T5, human CYP11B1 (Homo sapiens, UniProt P15538); assay: IC50 vs CYP11B1 by cortisol synthesis in V79 cells; format: cell-based; conditions: V79 cells expressing human CYP11B1, 1500 nM RSS, cortisol HTRF; test concentrations 0.5-10000 nM
T5 construct: expressed in transfected cells
T5 sequence (P15538 25-503): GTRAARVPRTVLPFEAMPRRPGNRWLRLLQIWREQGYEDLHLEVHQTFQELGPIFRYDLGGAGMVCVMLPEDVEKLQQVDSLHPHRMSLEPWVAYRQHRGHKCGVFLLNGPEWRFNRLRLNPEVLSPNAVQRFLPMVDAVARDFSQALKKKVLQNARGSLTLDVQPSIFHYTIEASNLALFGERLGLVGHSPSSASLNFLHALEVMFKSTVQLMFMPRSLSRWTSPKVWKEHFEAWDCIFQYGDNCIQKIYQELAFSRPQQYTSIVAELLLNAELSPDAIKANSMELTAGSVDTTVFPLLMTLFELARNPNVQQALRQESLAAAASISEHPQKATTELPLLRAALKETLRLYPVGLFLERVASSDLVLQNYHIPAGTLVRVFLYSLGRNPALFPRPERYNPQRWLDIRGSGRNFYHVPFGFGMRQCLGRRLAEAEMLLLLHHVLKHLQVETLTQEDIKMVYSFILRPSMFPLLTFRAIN
Protocol: Determination of IC50 vs CYP11B1/CYP11B2 by Measurement of Cortisol/Aldosterone Synthesis
This assay was performed in a standard 384-well plate design using cultured V79 cells stably expressing human CYP11B1 or human CYP11B2. Test compounds at 10 concentrations (for example, 10000, 3333.3, 1111.1, 370.4, 123.5, 41.2, 13.7, 4.6, 1.5 and 0.5 nM) were added in 384-well plate after the cell-seeding procedure. The incubation substrate contains 1500 nM RSS for CYP11B1 assay/750 nM DOC for CYP11B2 assay. The
Cortisol/Aldosterone production of cell culture supernatant was determined by Cortisol/Aldosterone HTRF kit after for about 15 hours incubation at RT (protect from light). IC50 values were calculated from the percent inhibition observed for each test compound at 10 concentrations.
The assay plate was read using Envision (Perkin Elmer, Waltham, Mass.) at 665 nm and 590 nm (using Filter Barcode of 217#, 205#; Mirror Barcode of 446#).
Data are analyzed using Assay Data Analyzer. All ratio data (665 nm/590 nm) are back calculated according to the standard curve, resulting in Cortisol/Aldosterone concentrations. IC50 values are reported as the Inflection Point (IP) of a four parameter fit of the titration data.
as §3
% Activity=100×{1−(Sample_back calculated Cortisol/Aldosterone concentration−LC_back calculated Cortisol/Aldosterone concentration)/(HC_back calculated Cortisol/Aldosterone concentration−LC_back calculated Cortisol/Aldosterone concentration)}

Row | Compound | IC50 at 8 min (CYP3A4) [µM] | IC50 (CYP1A2) [µM] | IC50 (CYP2C9) [µM] | IC50 (CYP2C19) [µM] | IC50 (CYP2D6) [µM] | IC50 (human CYP11B1) [µM]
1 | C[C@H](c1ccc(F)cc1)n1cncc1CC1CCN(S(=O)(=O)c2cnc(N3CCN(C)CC3)s2)CC1 [Compound 44] | 0.0011 | > 10 | 3.57 | 8.39 | 2.41 | 
2 | C[C@H](c1ccc(F)cc1)n1cncc1CN1CCN(S(=O)(=O)c2cnc(N3CCC(S(C)(=O)=O)C3)s2)CC1 (some centres unmarked) [Compound 7] |  | > 10 | 3.39 | > 10 | > 10 | 4.09
3 | C[C@H](c1ccc(F)cc1)n1cncc1CC1(C#N)CCN(S(=O)(=O)c2cnc(N3CCN(C)CC3)s2)CC1 [Compound 48] | 0.0094 | > 10 | > 10 | 8.06 | 2.85 | 
4 | C[C@H](c1ccc(F)cc1)n1cncc1C1CN(C)CC2CN(S(=O)(=O)c3cnc(Nc4ccccn4)s3)CCN21 (some centres unmarked) [Compound 41] | 0.0021 | > 10 | 2.26 | 4.95 | 2.3 | 
5 | C[C@H](c1ccc(F)cc1)n1cncc1C1CC12CCN(S(=O)(=O)c1cnc(N3CCN(C)CC3)s1)CC2 (single isomer, unassigned) [Compound 43a] |  | > 10 | > 10 | > 10 | 2.9 | 
6 | C[C@H](c1ccc(F)cc1)n1cncc1CC1(CO)CCN(S(=O)(=O)c2cnc(N3CCN(C)CC3)s2)CC1 [Compound 47] | 0.013 | > 10 | > 10 | > 10 | 5.84 | 
